This is an account of results in PubChem BioAssay (NCI).

Among the test systems are DMS 114 small cell lung; DMS 273 small cell lung; LXFL 529 NSCLC; KM20L2 colon; M19-MEL melanoma; SNB-78 CNS; HOP-18 NSCLC; XF 498 CNS; RXF-631 renal.
Experiment in all cases: NCI tumour cell line growth inhibition, 48 h

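Cells were grown in 96-well plates and exposed to each compound for 48 hours at five concentrations; endpoints were interpolated linearly between bracketing concentrations, or set to the highest concentration if not reached. TGI is the concentration that stops growth completely.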

Turning to `CCOc1ccc(NC(=O)/C(Cc2nc3ccccc3[nH]c2=O)=N\O)cc1`, the TGI in the assay on DMS 114 small cell lung, in the assay with DMS 273 small cell lung, with LXFL 529 NSCLC, with KM20L2 colon, in the assay on M19-MEL melanoma and with SNB-78 CNS was above 100 µM in each case.

As to `CCOc1ccccc1NC(=O)CSc1nnc(Cc2ccccc2)o1`, the TGI in the assay on HOP-18 NSCLC was 54.7 µM; in the assay on DMS 114 small cell lung, 32.4 µM; in the assay on DMS 273 small cell lung it was 60.2 µM; in the assay with LXFL 529 NSCLC it was 32.1 µM; in the assay on KM20L2 colon it was above 100 µM; in the assay with M19-MEL melanoma, above 100 µM. Besides, the TGI with SNB-78 CNS is above 100 µM.

As to `CC(=O)CC(=O)ON(C)C(C)=O`, the TGI in the assay with DMS 114 small cell lung, in the assay on DMS 273 small cell lung, in the assay with LXFL 529 NSCLC, in the assay with KM20L2 colon, in the assay with XF 498 CNS and in the assay on M19-MEL melanoma was above 100 µM each time. In the assay with SNB-78 CNS, this molecule gave a TGI above 100 µM.

As to `Cc1cc(N(CCC#N)CCC#N)ccc1/C=C(\NC(=O)/C=C/c1ccccc1)NC(=O)Nc1ccccc1C`, the TGI in the assay on DMS 114 small cell lung, in the assay on DMS 273 small cell lung, with LXFL 529 NSCLC, in the assay on KM20L2 colon, in the assay on RXF-631 renal and in the assay with M19-MEL melanoma was above 100 µM each time. Besides, the TGI in the assay with SNB-78 CNS is above 100 µM.

In the case of `CC(C)NC1CCCCC2c3cc(F)ccc3[C@]12O` (stereo partly specified), the TGI with HOP-18 NSCLC, in the assay with DMS 114 small cell lung, in the assay on DMS 273 small cell lung, in the assay with LXFL 529 NSCLC, in the assay on KM20L2 colon and in the assay with M19-MEL melanoma was above 100 µM in each case. The molecule also had a TGI in the assay with SNB-78 CNS above 100 µM.

For `CC(=O)OC1COC(n2c(O)c(N=Nc3ccc([N+](=O)[O-])cc3)c3cc(Br)c([N+](=O)[O-])cc32)C(OC(C)=O)C1OC(C)=O` (stereo unspecified), the TGI in the assay on HOP-18 NSCLC, with DMS 273 small cell lung, in the assay with LXFL 529 NSCLC, in the assay with KM20L2 colon, in the assay with RXF-631 renal and in the assay on XF 498 CNS was above 100 µM in each case. The TGI is above 100 µM in the assay on M19-MEL melanoma and 75.8 µM in the assay with SNB-78 CNS.

Turning to `CCN1C(=O)/C(=C\c2coc3ccccc3c2=O)SC1=S`, the TGI with HOP-18 NSCLC, in the assay on DMS 114 small cell lung, in the assay on DMS 273 small cell lung, in the assay with LXFL 529 NSCLC, with KM20L2 colon and in the assay on XF 498 CNS was above 100 µM in each case. Moreover, the TGI in the assay with M19-MEL melanoma and with SNB-78 CNS was above 100 µM throughout.

Turning to `CC(/C=C/c1ccccc1)=N\N=C(C)\C=C\c1ccccc1`, the TGI in the assay on DMS 273 small cell lung, in the assay with LXFL 529 NSCLC, in the assay on KM20L2 colon, with XF 498 CNS, in the assay on M19-MEL melanoma and with SNB-78 CNS was above 100 µM throughout.

For the molecule `COc1ccc2c(c1)CC[C@@H]1C2CC[C@]2(C)C(=N\O)/C(=N/O)CC12` (stereo partly specified), the TGI in the assay with HOP-18 NSCLC came out at 30.4 µM; in the assay with DMS 273 small cell lung it was 26.7 µM; in the assay with LXFL 529 NSCLC it was 26.8 µM; with KM20L2 colon, 18.5 µM; in the assay on XF 498 CNS it was 29.6 µM; in the assay with M19-MEL melanoma, 37 µM. In the assay with SNB-78 CNS, this molecule had a TGI of 47.5 µM.

On to `CC1(OCc2ccccc2)C(=O)N2C1N(C(=O)OCc1ccccc1)CC2(C)C` (stereo unspecified), for which the TGI in the assay on DMS 114 small cell lung is above 100 µM; with DMS 273 small cell lung it was above 100 µM; in the assay on LXFL 529 NSCLC, above 100 µM; in the assay with KM20L2 colon, above 100 µM; in the assay on XF 498 CNS it was 75 µM; in the assay on M19-MEL melanoma it was above 100 µM.

With `SCc1ccc(-c2ccc(CS)cc2)cc1`, the TGI with HOP-18 NSCLC is 30.9 µM; in the assay on DMS 114 small cell lung it was 25.6 µM; in the assay on DMS 273 small cell lung, 58.4 µM; in the assay with LXFL 529 NSCLC, 28.7 µM; with KM20L2 colon it was 53 µM; in the assay with XF 498 CNS, 36.6 µM. The figures for the TGI with M19-MEL melanoma and in the assay on SNB-78 CNS were 35.7 µM and 51 µM, respectively.

For the molecule `Cc1ccc([N+]2=NC(c3ccc([N+](=O)[O-])cc3)=NN(c3ccccc3)C2)cc1`, the TGI in the assay with DMS 114 small cell lung, in the assay on DMS 273 small cell lung, in the assay on LXFL 529 NSCLC, with KM20L2 colon, with XF 498 CNS and with M19-MEL melanoma was above 100 µM throughout. The TGI with SNB-78 CNS is above 100 µM.

In the case of `COc1cc(C(=O)O)cc2c1[nH]c1ccccc12`, the TGI in the assay on DMS 114 small cell lung, in the assay on DMS 273 small cell lung, with LXFL 529 NSCLC, in the assay on KM20L2 colon, in the assay on M19-MEL melanoma and in the assay on SNB-78 CNS was above 25 µM each time.

In the case of `CC(/C=C/C=C\C=C\C=C(/C)C(=O)NC(C)CO)=C\C(C)C(O)/C(C)=C/C(C)CCc1ccccc1` (stereo unspecified), the TGI in the assay with HOP-18 NSCLC came to 24.2 µM; in the assay with DMS 114 small cell lung, 2.47 µM; in the assay with DMS 273 small cell lung it was 17.1 µM; with LXFL 529 NSCLC, 18.7 µM; in the assay on KM20L2 colon, 25.1 µM; with XF 498 CNS, 22 µM. Also, the TGI in the assay with M19-MEL melanoma was found to be 19.4 µM; in the assay with SNB-78 CNS, 25.2 µM.

For `C/C(=N\N)C(CN1CCCCC1)C(c1ccccc1)c1c(O)c2ccccc2oc1=O` (stereo unspecified), the TGI in the assay with DMS 114 small cell lung, with DMS 273 small cell lung, in the assay on LXFL 529 NSCLC, in the assay with KM20L2 colon, in the assay on RXF-631 renal and in the assay with XF 498 CNS was above 100 µM each time. In addition, the TGI in the assay with M19-MEL melanoma and in the assay with SNB-78 CNS was above 100 µM throughout.
